Molecules are shown by their SMILES.

The target of test [1] is T1, Adrenergic receptor alpha-2 (Rattus norvegicus) (UniProt P22086+P19328+P22909). The experiment in a line: Evaluated for alpha-2 adrenergic receptor activity in the field stimulated rat vas deferens preparation. It counts as tissue-based.
Test [2] has as its target T1, Adrenergic receptor alpha-2 (Rattus norvegicus). The experiment in a line: Evaluated for alpha-2 adrenergic receptor activity in the field stimulated rat vas deferens preparation.* Confirmed by pretreatment with reserpine (3 mg/kg) 16 hr prior to sacrifice. Stimulatory effects blocked by prazosin (78 nM). Value estimated in the presen.
The target is the same in test [3]. The experiment in a line: Evaluated for alpha-2 adrenergic receptor activity in the field stimulated rat vas deferens preparation.* Stimulatory effects blocked by prazosin (78 nM). It counts as tissue-based.
Test [4] has the same target. The test can be described thus: Approximate efficacy based on maximal effect produced by […] was determined against the alpha-2 adrenergic receptor. The format is protein assay.
For test [5] the target is unchanged. The experiment in a line: Evaluated for alpha-2 adrenergic receptor activity in the field stimulated rat vas deferens preparation. It counts as tissue-based.
The target is the same in test [6]. The test can be described thus: Evaluated for alpha-2 adrenergic receptor activity in the field stimulated rat vas deferens preparation.*-confirmed by pretreatment with reserpine (3 mg/kg) 16 hr prior to sacrifice. Stimulatory effects blocked by prazosin (78 nM).

With `COc1ccc(OC)c2c1C1C[C@@H](N)C2O1` (some centres undefined), the pD2 in test [1] is 3.49.

As for `N[C@H]1CC2OC1c1ccccc12` (some centres undefined), the pD2 in test [2] was 4.9.

As to `COc1ccc(OC)c2c1C1CC(N=C(N)N)C2O1` (centres undefined), the pD2 in test [3] was found to be 4.75. The Efficacy in test [4] was determined as 0.7.

With `N[C@@H]1CC2OC1c1ccccc12` (some centres undefined), in test [5], the pD2 was less than 3.

With `COc1ccc(OC)c(C(O)C(C)N)c1` (centres undefined), the pD2 in test [5] was determined as 6.48. This molecule also yielded an Efficacy in test [4] of 1.

With `COc1ccc(OC)c2c1C1C[C@H](N)C2O1` (some centres undefined), the pD2 in test [6] is 5.08. In test [4], this molecule gave an Efficacy of 0.9.
